Data from ChEMBL document CHEMBL5291721, “A preclinical secondary pharmacology resource illuminates target-adverse drug reaction associations of marketed drugs” (Nat Commun, 2023).

How the values were obtained:
[1] = molecular target: T1, Muscarinic acetylcholine receptor M2 (Homo sapiens, UniProt P08172)
T1 sequence (P08172 whole entry): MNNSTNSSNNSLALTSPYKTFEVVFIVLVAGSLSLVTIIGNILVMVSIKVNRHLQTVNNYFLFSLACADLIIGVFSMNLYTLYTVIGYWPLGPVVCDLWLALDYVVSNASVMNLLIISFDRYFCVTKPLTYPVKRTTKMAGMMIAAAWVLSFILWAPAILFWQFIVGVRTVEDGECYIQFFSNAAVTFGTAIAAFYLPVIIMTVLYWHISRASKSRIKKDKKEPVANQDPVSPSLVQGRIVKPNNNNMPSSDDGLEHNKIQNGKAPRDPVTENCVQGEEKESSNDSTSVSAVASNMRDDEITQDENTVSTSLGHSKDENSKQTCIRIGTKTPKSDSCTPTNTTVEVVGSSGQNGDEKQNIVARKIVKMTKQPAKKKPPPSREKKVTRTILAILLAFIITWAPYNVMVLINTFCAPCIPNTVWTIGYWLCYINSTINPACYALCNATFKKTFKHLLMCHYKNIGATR

[2] = molecular target: T2, Amine oxidase [flavin-containing] A (Homo sapiens, UniProt P21397); format: functional
T2 sequence (P21397 whole entry): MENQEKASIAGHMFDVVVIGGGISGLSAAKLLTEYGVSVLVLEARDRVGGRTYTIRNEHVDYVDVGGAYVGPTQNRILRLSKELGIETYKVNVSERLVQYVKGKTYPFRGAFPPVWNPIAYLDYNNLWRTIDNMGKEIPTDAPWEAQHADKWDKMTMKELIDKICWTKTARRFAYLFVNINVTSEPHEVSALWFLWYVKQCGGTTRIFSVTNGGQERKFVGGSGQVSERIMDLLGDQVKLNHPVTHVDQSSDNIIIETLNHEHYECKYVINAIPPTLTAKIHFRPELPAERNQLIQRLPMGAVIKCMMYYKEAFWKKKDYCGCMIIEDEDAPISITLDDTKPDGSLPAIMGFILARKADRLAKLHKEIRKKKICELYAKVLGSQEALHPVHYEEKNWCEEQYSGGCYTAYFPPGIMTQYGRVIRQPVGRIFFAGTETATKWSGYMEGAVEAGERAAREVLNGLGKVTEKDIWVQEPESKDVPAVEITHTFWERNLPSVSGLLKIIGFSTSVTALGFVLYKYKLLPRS

[3] = molecular target: T3, Progesterone receptor (Homo sapiens, UniProt P06401)
T3 sequence (P06401 whole entry): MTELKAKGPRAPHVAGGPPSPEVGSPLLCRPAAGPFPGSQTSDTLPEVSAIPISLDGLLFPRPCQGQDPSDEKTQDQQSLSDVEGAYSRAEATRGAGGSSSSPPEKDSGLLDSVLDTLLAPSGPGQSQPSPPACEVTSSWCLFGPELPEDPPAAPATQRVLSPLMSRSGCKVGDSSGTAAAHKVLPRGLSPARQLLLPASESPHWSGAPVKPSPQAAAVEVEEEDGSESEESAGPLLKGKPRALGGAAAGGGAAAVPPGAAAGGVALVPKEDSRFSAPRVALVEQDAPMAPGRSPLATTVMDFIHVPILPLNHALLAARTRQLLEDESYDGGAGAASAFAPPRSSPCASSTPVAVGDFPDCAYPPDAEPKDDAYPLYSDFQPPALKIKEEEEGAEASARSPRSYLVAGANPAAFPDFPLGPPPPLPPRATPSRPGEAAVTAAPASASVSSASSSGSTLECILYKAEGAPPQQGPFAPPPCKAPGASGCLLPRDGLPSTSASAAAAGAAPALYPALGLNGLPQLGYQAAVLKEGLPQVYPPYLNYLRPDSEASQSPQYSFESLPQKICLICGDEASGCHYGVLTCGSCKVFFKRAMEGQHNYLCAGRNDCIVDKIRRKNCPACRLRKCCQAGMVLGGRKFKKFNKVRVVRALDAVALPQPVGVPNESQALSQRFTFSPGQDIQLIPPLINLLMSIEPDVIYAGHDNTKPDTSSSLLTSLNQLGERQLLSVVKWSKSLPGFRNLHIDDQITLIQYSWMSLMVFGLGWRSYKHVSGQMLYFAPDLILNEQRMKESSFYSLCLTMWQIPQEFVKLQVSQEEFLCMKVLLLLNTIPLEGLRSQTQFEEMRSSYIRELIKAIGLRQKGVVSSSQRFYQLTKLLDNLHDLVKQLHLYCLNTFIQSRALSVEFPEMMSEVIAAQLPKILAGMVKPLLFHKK

[4] = molecular target: T4, Estrogen receptor (Homo sapiens, UniProt P03372)
T4 sequence (P03372 whole entry): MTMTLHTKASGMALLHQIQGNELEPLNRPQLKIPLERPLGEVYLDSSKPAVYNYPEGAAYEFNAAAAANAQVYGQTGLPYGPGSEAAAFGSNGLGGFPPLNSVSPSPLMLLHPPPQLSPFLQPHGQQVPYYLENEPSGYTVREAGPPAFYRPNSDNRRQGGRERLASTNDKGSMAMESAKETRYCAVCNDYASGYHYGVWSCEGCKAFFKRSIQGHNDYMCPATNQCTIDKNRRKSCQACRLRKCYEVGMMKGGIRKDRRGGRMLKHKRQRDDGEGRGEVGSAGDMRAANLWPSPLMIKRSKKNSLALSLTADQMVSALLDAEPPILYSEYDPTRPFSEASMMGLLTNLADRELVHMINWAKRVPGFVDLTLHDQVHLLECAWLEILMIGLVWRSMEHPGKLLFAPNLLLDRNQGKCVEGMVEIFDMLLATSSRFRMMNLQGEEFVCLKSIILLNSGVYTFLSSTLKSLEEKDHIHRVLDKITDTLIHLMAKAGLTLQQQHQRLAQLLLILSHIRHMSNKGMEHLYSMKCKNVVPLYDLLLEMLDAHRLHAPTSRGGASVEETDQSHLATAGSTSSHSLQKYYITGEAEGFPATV

[5] = molecular target: Voltage-gated inwardly rectifying potassium channel KCNH2 (Homo sapiens, UniProt Q12809); format: functional; conditions: read-out: AC50
Voltage-gated inwardly rectifying potassium channel KCNH2, sequence (Q12809 whole entry): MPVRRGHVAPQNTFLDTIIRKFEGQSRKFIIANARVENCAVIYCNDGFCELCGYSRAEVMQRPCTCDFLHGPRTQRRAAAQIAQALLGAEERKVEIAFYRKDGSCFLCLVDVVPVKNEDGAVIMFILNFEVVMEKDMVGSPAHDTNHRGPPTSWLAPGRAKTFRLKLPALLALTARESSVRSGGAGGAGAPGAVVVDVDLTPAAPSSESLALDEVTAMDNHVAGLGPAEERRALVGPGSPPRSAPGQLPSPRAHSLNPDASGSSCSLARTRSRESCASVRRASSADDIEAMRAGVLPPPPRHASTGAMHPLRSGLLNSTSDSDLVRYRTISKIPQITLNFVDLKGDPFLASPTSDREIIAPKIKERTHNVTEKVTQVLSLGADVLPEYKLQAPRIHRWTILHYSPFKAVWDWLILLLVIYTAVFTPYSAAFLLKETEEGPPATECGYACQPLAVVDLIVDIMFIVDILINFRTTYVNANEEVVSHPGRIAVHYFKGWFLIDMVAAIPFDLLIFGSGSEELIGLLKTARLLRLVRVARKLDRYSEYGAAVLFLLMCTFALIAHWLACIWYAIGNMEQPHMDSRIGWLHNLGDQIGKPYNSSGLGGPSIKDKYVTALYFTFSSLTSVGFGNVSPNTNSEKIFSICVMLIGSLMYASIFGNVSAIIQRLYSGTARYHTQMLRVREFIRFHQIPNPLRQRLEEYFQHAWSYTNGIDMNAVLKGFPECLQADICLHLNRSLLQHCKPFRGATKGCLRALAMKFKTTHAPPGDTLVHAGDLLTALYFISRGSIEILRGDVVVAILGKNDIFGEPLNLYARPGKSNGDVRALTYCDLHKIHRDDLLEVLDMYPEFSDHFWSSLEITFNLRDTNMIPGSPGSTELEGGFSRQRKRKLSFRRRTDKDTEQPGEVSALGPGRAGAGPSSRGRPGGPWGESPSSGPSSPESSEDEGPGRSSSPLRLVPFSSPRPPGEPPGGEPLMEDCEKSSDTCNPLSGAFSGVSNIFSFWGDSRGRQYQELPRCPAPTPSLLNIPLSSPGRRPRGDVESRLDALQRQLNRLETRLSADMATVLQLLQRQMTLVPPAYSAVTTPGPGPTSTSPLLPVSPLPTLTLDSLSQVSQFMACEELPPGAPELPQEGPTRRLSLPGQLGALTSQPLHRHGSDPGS

[6] = molecular target: T5, 5-hydroxytryptamine receptor 1A (Homo sapiens, UniProt P08908)
T5 sequence (P08908 whole entry): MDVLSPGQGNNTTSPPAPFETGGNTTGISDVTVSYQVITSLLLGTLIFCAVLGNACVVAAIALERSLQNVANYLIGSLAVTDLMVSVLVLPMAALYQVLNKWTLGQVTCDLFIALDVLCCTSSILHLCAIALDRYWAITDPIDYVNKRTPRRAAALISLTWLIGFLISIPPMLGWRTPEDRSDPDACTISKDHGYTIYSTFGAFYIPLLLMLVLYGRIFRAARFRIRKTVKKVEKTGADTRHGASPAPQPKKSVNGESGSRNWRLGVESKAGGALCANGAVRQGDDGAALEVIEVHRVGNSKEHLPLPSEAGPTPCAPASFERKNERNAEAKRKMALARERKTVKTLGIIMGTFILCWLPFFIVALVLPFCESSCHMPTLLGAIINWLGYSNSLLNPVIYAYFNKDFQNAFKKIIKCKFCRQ
Further: assay procedure not described here.

Row | SMILES | AC50 [1] [µM] | AC50 [2] [µM] | AC50 [3] [µM] | AC50 [4] [µM] | AC50 [5] [µM] | AC50 [6] [µM]
1 | CC(C)(C)NCC(O)COc1ccccc1C#N (stereo not drawn) [BUNITROLOL] | > 30 | 10.4 | > 30 | > 30 | > 30 | 0.0086
2 | COc1c(OCCCN2CCOCC2)ccc2c1N=C(NC(=O)c1cnc(N)nc1)N1CCN=C21 [COPANLISIB] | 5.64 | > 30 | > 30 | > 30 |  | > 30
3 | COc1cccc2c1C(=O)c1c(O)c3c(c(O)c1C2=O)C[C@@](O)(C(=O)CO)C[C@@H]3O[C@H]1C[C@H](N)[C@H](O)[C@H](C)O1 [DOXORUBICIN] | > 30 | > 30 | > 30 | > 30 | 5.63 | > 30
4 | COc1cccc2c1C(=O)c1c(O)c3c(c(O)c1C2=O)C[C@@](O)(C(=O)CO)C[C@@H]3O[C@H]1C[C@H](N)[C@@H](O)[C@H](C)O1 [EPIRUBICIN] | 25.2 | > 30 | > 30 | > 30 |  | > 30
5 | CCCCC(=O)O[C@H]1CC[C@H]2[C@@H]3CCc4cc(O)ccc4[C@H]3CC[C@]12C [ESTRADIOL VALERATE] | > 30 | > 30 | 0.234 | 0.0822 | > 30 | > 30
6 | CSCC[C@H](N)C(=O)O [METHIONINE] | > 30 | > 30 | > 30 | > 30 |  | > 30
7 | CC(=O)OCC(=O)[C@@]1(O)CC[C@H]2[C@@H]3C[C@H](C)C4=CC(=O)C=C[C@]4(C)[C@H]3[C@@H](O)C[C@@]21C [METHYLPREDNISOLONE ACETATE] | > 30 | > 30 | 3.03 | > 30 |  | > 30
8 | COCC(=O)O[C@]1(CCN(C)CCCc2nc3ccccc3[nH]2)CCc2cc(F)ccc2[C@@H]1C(C)C [MIBEFRADIL] | 3.85 | > 30 | > 30 | > 30 |  | 0.746
9 | OC(CN1CCCCC1)c1cc(-c2ccccc2)on1 (stereo not drawn) [PERISOXAL] | 16.9 | > 30 | > 30 | > 30 |  | > 30
10 | CNC(=O)c1cnn(-c2nc(N)c3ncn([C@@H]4O[C@H](CO)[C@@H](O)[C@H]4O)c3n2)c1 [REGADENOSON ANHYDROUS] | > 30 | > 30 | > 30 | > 30 |  | > 30
11 | CC(CN(C)C)CN1c2ccccc2CCc2ccccc21 (stereo not drawn) [TRIMIPRAMINE] |  | > 30 | > 30 | > 30 | 8.9 | 20.1
12 | CC(=O)O[C@]1(C(C)=O)CC[C@H]2[C@@H]3CCC4=CC(=O)CCC4=C3[C@@H](c3ccc(N(C)C)cc3)C[C@@]21C [ULIPRISTAL ACETATE] | > 30 | > 30 | 0.003 | 9.29 |  | > 30
